From patent US20240294572A1, “Antimicrobial Peptides” (priority 2021, published 2024)
Residues, ends and D or L forms follow the SMILES beside them. *: point of attachment. Decanoyl = CCCCCCCCCC(=O)*

What was measured:
Assay in all cases: Mass spectrometry of mouse plasma proteins bound to bead-immobilized peptide
Format in all cases: binding
Conditions in all cases: intensity bound to L-form / D-form of C10-KR8
[1] = biological target: T1, Apolipoprotein A-I (Q00623) (Mus musculus, UniProt Q00623)
T1 construct: incubated with 5% mouse plasma; from tissue; host or cells: mouse plasma (5%)
T1 sequence (Q00623 19-264): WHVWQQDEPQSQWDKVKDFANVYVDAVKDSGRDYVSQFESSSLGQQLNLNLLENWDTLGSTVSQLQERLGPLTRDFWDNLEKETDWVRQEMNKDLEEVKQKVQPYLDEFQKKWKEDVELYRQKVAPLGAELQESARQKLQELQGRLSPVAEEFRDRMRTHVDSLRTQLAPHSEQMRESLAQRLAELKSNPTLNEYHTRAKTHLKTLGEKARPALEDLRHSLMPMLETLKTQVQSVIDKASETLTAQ
Procedure: (§1) Dynabeads M-370 amine (2×10^9 beads/mL, 50 μL; Thermo Fisher Scientific) were washed 3 times in sterile PBS (1 mL; GIBCO) and reacted with a bifunctional SM(PEG)4 cross-linker (5 mg/mL in DMSO) containing N-hydroxysuccinimide (NHS) ester and maleimide functional groups. A stable covalent bond between the amino group of beads and the NHS ester of the cross-linker was formed in PBS at pH 7.2 at room temperature for 24 hours with shaking at 80 rpm. The beads were then washed six times with PBS to remove nonreacted cross-linker. Next, peptide C10-KR8 (with a cysteine at the N-terminus) at 5 mg/mL was reacted with the free maleimide group in PBS for 24 hours at room temperature with shaking at 80 rpm. Another round of washing was conducted to remove the nonreacted peptides. Both the L-and D-forms of the peptide were coupled in the same manner. A portion of the beads without peptide coupling was saved as a control.
(§2) For serum binding experiments, the beads were resuspended in 500 μL of PBS; 200-μL aliquots of the coated and control dynabead were incubated with 5% mouse plasma for 18 hours at 37° C. After binding, the beads were washed six times with PBS to remove unbound proteins. Finally, the beads were suspended in 50 μL of PBS for mass spectrophotometric analysis to identify peptide-binding partners.
(§3) The samples were reduced by 10 mM dithiothreitol (DTT) and incubated for 30 minutes at 56° C. and back to room temperature. A final concentration of 50 mM iodoacetamide was added to alkylate free cysteines followed by further incubation for 20 min in the dark. Bound proteins were enzymatically digested by trypsin (4 μL of 0.5 μg/mL) overnight. A 60 […] portion was transferred to a new Eppendorf® tube and dried for 2 hours. The samples were then dissolved in 20 μL of 2% acetonitrile with 0.1% formic acid before being loaded to Q-tip columns (Pepclean, C18 spin column). Column was activated by pipetting in and out (4× times), 10 μL of 70% acetonitrile with 0.1% formic acid, and equilibrating with the same volume of 2% acetonitrile with 0.1% formic acid. Binding of the samples was done by mixing more than 10 × times, followed by washing in the same buffer (2% acetonitrile with 0.1% formic acid). The bound peptides were then eluted with 20 μL of 70% acetonitrile with 0.1% formic acid. Samples were subjected to LC-MS analysis after being suspended in the desired buffer.
(§4) Extracted peptides were resuspended in 2% acetonitrile (ACN) and 0.1% formic acid (FA) and loaded onto trap column Acclaim™ PepMap™ 100 75 μm×2 cm C18 LC Columns (Thermo Scientific) at a flow rate of 4 μL/minute. These were then separated with a Thermo RSLC UltiMate™ 3000 on a Thermo Easy-Spray PepMap™ M RSLC C18 75 μm×50 cm C-18 2 μm column (Thermo Scientific) with a step gradient of 4-25% solvent B (0.1% FA in 80% ACN) from 10 to 37 minutes and 25-45% solvent B for 37-46 minutes at 300 nL/min and 50° C. with a 70 minute total run time. Eluted peptides were analyzed by a Thermo Orbitrap Fusion™ Lumos™ Tribrid™ (Thermo Scientific) mass spectrometer in a data dependent acquisition mode. A survey full scan MS (from m/z 350-1800) was acquired in the orbitrap with a resolution of 120000. The AGC target for MS1 was set as 4×10^5 and the ion filling time set as 100 ms. The most intense ions with charge state 2-6 were isolated in 3 second cycle and fragmented using HCD fragmentation with 40% normalized collision energy and detected at a mass resolution of 30000 at 200 m/z. The AGC target for MS/MS was set as 5×10^4 and ion filling time set 60 ms dynamic exclusion was set for 30 seconds with a 10 ppm mass window. Protein identification was performed by searching MS/MS data against the Swiss-Prot mouse protein database. The search was set up for full tryptic peptides with a maximum of two missed cleavage sites. Acetylation of protein N-terminus and oxidized methionine were included as variable modifications, and carbamidomethylation of cysteine was set as fixed modification. […]

[2] = biological target: T2, Apolipoprotein A-IV (P06728) (Mus musculus, UniProt P06728)
T2 construct: incubated with 5% mouse plasma; from tissue; host or cells: mouse plasma (5%)
T2 sequence (P06728 21-395): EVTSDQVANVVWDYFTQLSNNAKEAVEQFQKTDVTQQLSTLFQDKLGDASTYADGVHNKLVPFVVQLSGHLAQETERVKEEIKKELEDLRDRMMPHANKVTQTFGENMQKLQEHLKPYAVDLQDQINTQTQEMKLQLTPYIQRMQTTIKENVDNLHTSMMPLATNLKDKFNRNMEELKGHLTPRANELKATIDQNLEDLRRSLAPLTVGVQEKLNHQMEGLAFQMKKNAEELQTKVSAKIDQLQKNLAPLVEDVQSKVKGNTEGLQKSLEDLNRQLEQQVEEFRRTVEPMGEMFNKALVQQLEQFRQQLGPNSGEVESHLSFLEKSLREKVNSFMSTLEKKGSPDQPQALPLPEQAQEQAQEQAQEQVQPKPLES
Procedure: as §1, §2, §3, §4

[3] = biological target: T3, Apolipoprotein C-I (P34928) (Mus musculus, UniProt P34928)
T3 construct: incubated with 5% mouse plasma; from tissue; host or cells: mouse plasma (5%)
T3 sequence (P34928 27-88): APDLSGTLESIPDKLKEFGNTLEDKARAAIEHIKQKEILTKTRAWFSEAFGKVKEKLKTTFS
Procedure: as §1, §2, §3, §4

[4] = biological target: T4, Apolipoprotein C-III (P33622) (Mus musculus, UniProt P33622)
T4 construct: incubated with 5% mouse plasma; from tissue; host or cells: mouse plasma (5%)
T4 sequence (P33622 21-99): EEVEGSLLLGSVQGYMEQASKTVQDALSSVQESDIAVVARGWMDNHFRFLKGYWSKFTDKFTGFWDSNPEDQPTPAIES
Procedure: as §1, §2, §3, §4

[5] = biological target: T5, Apolipoprotein E (P08226) (Mus musculus, UniProt P08226)
T5 construct: incubated with 5% mouse plasma; from tissue; host or cells: mouse plasma (5%)
T5 sequence (P08226 19-311): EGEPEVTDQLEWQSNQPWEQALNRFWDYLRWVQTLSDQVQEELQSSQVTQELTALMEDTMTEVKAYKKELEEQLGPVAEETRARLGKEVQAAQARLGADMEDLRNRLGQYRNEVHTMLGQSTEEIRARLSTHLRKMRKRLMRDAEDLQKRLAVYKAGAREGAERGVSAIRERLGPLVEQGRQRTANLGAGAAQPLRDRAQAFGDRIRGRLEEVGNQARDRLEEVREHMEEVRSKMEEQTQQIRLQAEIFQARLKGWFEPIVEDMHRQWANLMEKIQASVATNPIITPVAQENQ
Procedure: as §1, §2, §3, §4

SMILES: CCCCCCCCCC(=O)N[C@@H](CCCCN)C(=O)N[C@@H](CCCNC(=N)N)C(=O)N[C@H](C(=O)N[C@@H](Cc1c[nH]c2ccccc12)C(=O)N[C@@H](CCC(N)=O)C(=O)N[C@@H](CCCNC(=N)N)C(=O)N[C@H](C(=O)N[C@@H](CCCCN)C(N)=O)[C@@H](C)CC)[C@@H](C)CC [Peptide C10-KR8] (Decanoyl-KRIWQRIK-NH2)
- L/D Ratio, Apolipoprotein A-I [1]: 3.54
- L/D Ratio, Apolipoprotein A-IV [2]: 2.89
- L/D Ratio, Apolipoprotein C-I [3]: 2.08
- L/D Ratio, Apolipoprotein C-III [4]: 3.62
- L/D Ratio, Apolipoprotein E [5]: 0.811
